We go through four molecules from patent US20240216354A1, “IMMUNOMODULATORY IMIDE DRUGS AS ZETA-CHAIN-ASSOCIATED PROTEIN KINASE 70 (ZAP70) AGONISTS AND USES THEREOF” (Dana-Farber Cancer Institute, Inc., priority 2019, published 2024).

For assay [1], the target named is T1, Zap-70 (Homo sapiens, UniProt P43403).
T1 sequence (P43403 1-619): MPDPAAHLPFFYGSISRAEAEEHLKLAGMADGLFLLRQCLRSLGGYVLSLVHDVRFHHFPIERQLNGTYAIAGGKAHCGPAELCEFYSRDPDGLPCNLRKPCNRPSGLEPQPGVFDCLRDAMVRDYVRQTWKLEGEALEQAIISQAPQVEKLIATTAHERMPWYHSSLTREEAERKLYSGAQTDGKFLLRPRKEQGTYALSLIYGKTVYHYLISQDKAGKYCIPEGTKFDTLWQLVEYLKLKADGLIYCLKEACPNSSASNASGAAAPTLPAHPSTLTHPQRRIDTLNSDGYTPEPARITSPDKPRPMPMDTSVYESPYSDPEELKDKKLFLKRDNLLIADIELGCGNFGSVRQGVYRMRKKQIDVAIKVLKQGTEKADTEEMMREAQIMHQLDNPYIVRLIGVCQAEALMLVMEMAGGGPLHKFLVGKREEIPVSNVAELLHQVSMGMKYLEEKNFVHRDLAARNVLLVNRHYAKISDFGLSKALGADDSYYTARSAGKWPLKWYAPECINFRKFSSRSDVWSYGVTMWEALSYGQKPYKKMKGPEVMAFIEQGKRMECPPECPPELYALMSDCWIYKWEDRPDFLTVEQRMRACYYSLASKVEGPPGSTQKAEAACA
Kind of assay: Saturation-transfer difference (STD) NMR binding to recombinant Zap-70. The settings on record: Pom 320 μM, Len 2.56 mM, ATP 2.56 mM, Zap-70 approximately 2 μM, deuterated PBS. Further details: purchased Origene, Rockville, MD. As for the experimental part:
(§1) (A) Jurkat cells were transfected with scrambled (Sc) siRNA or Zap-70 siRNA. Whole cell lysates were subjected to immunoblotting using indicated Abs. (B) Jurkat cells were treated with lenalidomide ([…]) or pomalidomide (1 and 3 μM) for 4 h and 8 h. Whole cell lysates were subjected to p-Zap ELISA assay. (C) Jurkat whole cell lysates were incubated with pomalidomide-beads in the presence or absence of competitor (1 mM free pomalidomide) for 1 h. After elution, samples were subjected to immunoblotting using anti-Zap-70 Ab. (D) Saturation-transfer difference resulting from the binding of pomalidomide to Zap-70. Pomalidomide is at 320 μM and Zap-70 is approximately 2 μM in deuterated PBS solution. […] (E) Saturation-transfer difference resulting from the binding of pomalidomide to Zap-70 in the presence of 2.56 mMATP. Pomalidomide is at 320 μM and Zap-70 is approximately 2 μM in deuterated PBS solution. […] Note that both ATP and pomalidomide show binding the Zap-70. (F) Non-cell based Zap-70 kinase assay was carried out, according to manufacturer's protocol.
(A) Saturation-transfer difference resulting from the binding of lenalidomide to Zap-70, with lenalidomide (2.56 mM) and Zap-70 (2 μM) in deuterated PBS solution. […] (B) Saturation-transfer difference resulting from the binding of lenalidomide to Zap70 in the presence of 2.56 mM ATP, with lenalidomide (2.56 mM) and Zap-70 (2 μM) in deuterated PBS solution.
Commercial recombinant Zap-70 (Origene, Rockville, MD) was prepared by gel filtration buffer exchange into deuterated phosphate-buffered saline (PBS), which removed any components of the protein storage buffer, including glycerol. Len and Pom were made as d6-DMSO stock solutions and frozen in aliquots prior to use. ATP was stored frozen in aliquots at −20° C. in deuterated PBS. NMR samples were prepared in 5 mm SampleJet tubes to a final volume of 500 μl by adding 5-20 μl of the appropriate IMiD stock solution to the buffer-exchanged protein. The final concentration of protein in the NMR samples was approximately 2 μM. […]

In assay [2] the target is T1, Zap-70. Kind of assay: Immunoblotting of p-Zap-70 in NK-92 cells. Type of assay: cell-based. The note with it: 24 h, Pom 0.5 and 1 μM, CC-220 0.01, 0.1, 1 μM. As for the experimental part: (§2) (A) NK-92 cells were cultured with Pom (0.5 and 1 μM) for 24 h. Whole cell lysates were subjected to immunoblotting using indicated Abs. (B) NK-92 cells were cultured with Pom (0.5 and 1 μM) for 48 h. The cells were subsequently incubated with calcein-AM-stained U266 cells for 4 h at the indicated effector/target (E/T) ratios. Percent specific lysis was calculated as described previously. (C) NK-92 cells were cultured with Pom (0.03-3 μM) for 72 h. Cell growth was assessed by MTT assay. (D) NK-92 cells were transfected with scrambled (Sc) or Zap-70 siRNA (Zap70si). After 72 h incubation, cell viability was measured by trypan-blue dye exclusion. For B, C, and D, data are representative of at least two independent experiments, and values are expressed in mean±SD.
(§3) (A) NK-92 cells were cultured with Len (1 μM), Pom (0.01, 0.1, 1 μM) or CC-220 (0.01, 0.1, 1 μM) for 24 h. Whole cell lysates were subjected to immunoblotting using indicated Abs. (B) NK-92 cells were cultured with Pom (0.1 and 1 μM) or CC-220 ([…]) for 48 h. NK cell activity was measured by incubation with calcein AM-labeled U266 cells for 4 h at E/T ratio of 2.5/1. Percent specific lysis was calculated as previously described. Data are representative of three independent experiments, and values are expressed in mean±SD. *: p<0.01.
(In general: In western blotting, separated proteins are transferred to a membrane and probed.)

For assay [3], the system named is U266 cells. Nature of the assay: NK-92 NK cell activity against calcein-AM-stained U266 cells. The note with it: NK-92 cells, 48 h; Pom 0.5 and 1 μM; CC-220 0.1 and 1 μM, E/T 2.5/1. Type of assay: cell-based. As for the experimental part: as §2, §3
Assay [4] deals with granzyme-B (GZM-B). Nature of the assay: GZM-B expression in KHYG-1 cells (immunoblotting, real-time qPCR). The class given is cell-based. As to the method:
(A) KHYG1 cells were cultured with pomalidomide (0.25-1 μM) for 24 h. (B) Isolated primary NK cells from healthy volunteers (#1, #2) were cultured with pomalidomide (0.3-1 μM) for 24 h. (C) KHYG-1 cells were transfected with Scsi or Zap-70si. After 48 h, cells were cultured for 24 h in the absence or presence (0.5 μM) of pomalidomide. Whole cell lysates and RNAs were subjected to immunoblotting using indicated Abs.
(A) KHYG-1 cells were transfected with Scsi or CRBNsi. After 48 h, cells were cultured in the absence or presence of pomalidomide (0.5 μM) for 24 h, and cell lysates immunoblotted with indicated Abs. (B) KHYG-1 cells were transfected with Scsi or Zap-70si, and then cultured for 72 h with pomalidomide (0.25 μM), in the absence of IL-2. Cells were counted and incubated with calcein AM-labeled U266 for 4 h at indicated effector/target (E/T) ratios.
(§4) (A) KHYG-1 cells were transfected with CRBN, IKZF1, or IKZF3 siRNA. The transfectants were then cultured for 24 h with pomalidomide (0.5 μM). The arrow indicates CRBN. (B) KHYG-1 cells were cultured with pomalidomide for 24 h (0.5 μM), in the presence or absence of bortezomib (BTZ; 2.5 and 5 nM). (C, D) KHYG-1 cells were cultured for 24 h with lenalidomide, pomalidomide, or CC-220 (i.e., iberdomide) (0.01-1 μM). Whole cell lysates and RNAs were subjected to immunoblotting using indicated Abs (C) and real-time q-PCR (D), respectively.

The test system of assay [5] is IKZF3. Kind of assay: IKZF3 expression in KHYG-1 cells (immunoblotting). The class given is cell-based. As for the experimental part:
as §4

Assay [6] deals with CRBN (Homo sapiens, UniProt Q96SW2). The settings on record: cited from earlier work.
Assay [7] concerns the target T1, Zap-70. Kind of assay: PathScan Phospho-Zap-70 (Tyr319) Sandwich ELISA in Jurkat cells. The class given is cell-based. The settings on record: lenalidomide (1 and 3 μM) or pomalidomide (1 and 3 μM), 4 h and 8 h, Len<Pom. As for the experimental part: as §1
Phosphorylation of Zap-70 was evaluated using PathScan Phospho-Zap-70 (Tyr319) Sandwich ELISA Kit (Cell Signaling Technology), according to manufacturer's protocol.
Background: An ELISA detects its analyte on a solid surface through an enzyme-linked reagent.

Assay [8] concerns the target T1, Zap-70. Nature of the assay: Immunoblotting of p-Zap-70, p-LAT and p-ERK in PBMCs. The class given is cell-based. Further details: endogenous in cells; host or cells: primary PBMCs, primary T cells and primary NK cells from healthy volunteers. The note with it: 16 h, Pom 0.01-1 μM, Len 1 μM. As to the method:
(A) PBMCs were cultured with pomalidomide (“Pom”) (0.01-1 μM) for 16 h. […] (B) PBMCs were cultured with pomalidomide (0.1 and 1 μM) for the indicated time periods. (C) PBMCs were cultured with lenalidomide (“Len”) (1 μM) for 16 h. (D) Primary T-cells from healthy volunteer were cultured with pomalidomide (0.25-1 μM) for 16 h. (E) Jurkat cells were cultured with pomalidomide (0.5 and 1 μM) for 16 h. Whole cell lysates were subjected to immunoblotting (A-E) using indicated Abs. (F) Jurkat cells were cultured with pomalidomide (0.01-1 μM) or lenalidomide (0.01-1 μM) for 72 h. Cell growth was assessed by MTT assay.
To characterize the effect of IMiDs on Zap-70 function in immune effector cells, pomalidomide triggered phosphorylation of Zap-70 was evaluated along with its known downstream target linker of activated T-cells (LAT) in PBMCs from healthy volunteers. […] Image J densitometric analysis confirmed 42% increased p-Zap-70 after pomalidomide (1 μM) treatment (FIG. 1A, lower panel). The increased p-Zap-70, p-LAT, as well as downstream p-ERK in PBMCs triggered by pomalidomide is also time-dependent (FIG. 1B). […] Since Zap-70 is a mediator of T-cell receptor signaling, whether IMiDs triggered p-Zap-70 in T cells from healthy volunteers was studied.

The mark [9] stands for this setting: pomalidomide 0.5 μM 24 h, BTZ 2.5 and 5 nM.

CRBN, sequence (Q96SW2 whole entry, species assumed): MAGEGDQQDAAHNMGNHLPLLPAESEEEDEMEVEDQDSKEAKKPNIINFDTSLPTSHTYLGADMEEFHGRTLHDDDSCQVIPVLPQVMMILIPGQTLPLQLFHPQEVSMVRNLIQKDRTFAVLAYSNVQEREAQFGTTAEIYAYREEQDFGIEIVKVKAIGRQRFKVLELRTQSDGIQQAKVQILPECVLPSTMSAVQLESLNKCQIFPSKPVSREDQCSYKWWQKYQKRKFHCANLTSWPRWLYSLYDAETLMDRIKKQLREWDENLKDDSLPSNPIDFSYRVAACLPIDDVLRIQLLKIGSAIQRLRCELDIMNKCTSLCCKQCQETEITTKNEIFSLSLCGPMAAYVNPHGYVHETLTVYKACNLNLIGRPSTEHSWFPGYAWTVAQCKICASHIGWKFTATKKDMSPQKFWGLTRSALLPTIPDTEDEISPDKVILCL

`Nc1ncnc2c1ncn2[C@@H]1O[C@H](COP(=O)(O)OP(=O)(O)OP(=O)(O)O)[C@@H](O)[C@H]1O` [ATP]: in assay [1], the “direct binding to Zap-70 (STD NMR)” value is “both ATP and lenalidomide bind to Zap-70”.

`O=C1CC[C@H](N2Cc3c(OCc4ccc(CN5CCOCC5)cc4)cccc3C2=O)C(=O)N1` [CC-220, iberdomide]: in assay [2], the “p-Zap-70 (immunoblotting)” value is “induced p-Zap-70 in a dose-dependent fashion”. The “NK cell activity against U266 cells (percent specific lysis)” value in assay [3] is on record as “enhanced NK cell activity”. For the same molecule, the “potency in triggering GZM-B, compared among lenalidomide, pomalidomide and CC-220” value in assay [4] (0.01-1 μM, 24 h, immunoblotting and real-time qPCR) is “more potently upregulated GZM-B than lenalidomide or pomalidomide”. In addition, in assay [5] (0.01-1 μM, 24 h), the IKZF3 expression entry is reported as “downregulation of IKZF3”. The “binding affinity to CRBN relative to lenalidomide or pomalidomide” value in assay [6] is reported as “enhanced binding affinity to CRBN relative to lenalidomide or pomalidomide”.

Take `Nc1cccc2c1CN(C1CCC(=O)NC1=O)C2=O` (stereo not drawn) [lenalidomide]: the “p-Zap-70 (Tyr319) by ELISA” value in assay [7] was “increased p-Zap-70 (Tyr319) in a dose-dependent fashion”. For the same molecule, the “direct binding to Zap-70 (STD NMR)” value in assay [1] is “similarly binds to Zap-70”. Moreover, in assay [8], the “phosphorylation of LAT (immunoblotting)” value was “similarly triggered p-Zap-70 and p-LAT in PBMCs”; the “phosphorylation of Zap-70 (immunoblotting)” value is “similarly triggered p-Zap-70 and p-LAT in PBMCs”.

As for `CC(C)C[C@H](NC(=O)[C@H](Cc1ccccc1)NC(=O)c1cnccn1)B(O)O` [bortezomib], in assay [4] (setting [9]), the “Pom-induced GZM-B expression in presence of bortezomib” value is on record as “downregulated Pom-induced GZM-B expression in a dose-dependent fashion”. Further, the “IKZF3 expression in presence of bortezomib” value in assay [5] (setting [9]) was “upregulation of IKZF3”.
